According to ChEMBL document CHEMBL1909046, “DrugMatrix in vitro pharmacology data”:

How the values were obtained:
[1] = DRUGMATRIX: Calcium Channel Type L, Benzothiazepine radioligand binding (ligand: [3H] Diltiazem); assay type: cell membranes, Rattus norvegicus, Wistar, Brain, Membrane; details: Not Active = under 50% inhibition at 10 µM
B2 bradykinin receptor = target: T1, B2 bradykinin receptor (Homo sapiens, UniProt P30411); assay type: cell membranes, Membrane; details: chem-1; also: in other assays of this panel Not Active means under 50% inhibition at 10 µM
T1 sequence (P30411 whole entry): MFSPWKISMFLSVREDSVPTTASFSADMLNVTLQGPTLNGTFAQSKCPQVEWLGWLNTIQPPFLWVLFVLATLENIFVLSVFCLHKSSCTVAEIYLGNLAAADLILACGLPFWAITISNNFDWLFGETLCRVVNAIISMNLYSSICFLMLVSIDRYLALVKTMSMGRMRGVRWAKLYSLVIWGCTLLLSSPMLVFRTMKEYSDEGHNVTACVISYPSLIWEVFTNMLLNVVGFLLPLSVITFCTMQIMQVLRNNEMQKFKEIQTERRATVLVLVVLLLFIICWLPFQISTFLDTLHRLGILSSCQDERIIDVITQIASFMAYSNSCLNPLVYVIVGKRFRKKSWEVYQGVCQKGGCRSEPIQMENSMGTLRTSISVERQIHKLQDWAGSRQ

[2] = target: 5-hydroxytryptamine receptor 4 (Cavia porcellus, UniProt O70528); assay type: cell membranes, Dunkin-Hartley, Striatum, Membrane; also: in other assays of this panel Not Active means under 50% inhibition at 10 µM
Chain of 5-hydroxytryptamine receptor 4 (O70528 whole entry): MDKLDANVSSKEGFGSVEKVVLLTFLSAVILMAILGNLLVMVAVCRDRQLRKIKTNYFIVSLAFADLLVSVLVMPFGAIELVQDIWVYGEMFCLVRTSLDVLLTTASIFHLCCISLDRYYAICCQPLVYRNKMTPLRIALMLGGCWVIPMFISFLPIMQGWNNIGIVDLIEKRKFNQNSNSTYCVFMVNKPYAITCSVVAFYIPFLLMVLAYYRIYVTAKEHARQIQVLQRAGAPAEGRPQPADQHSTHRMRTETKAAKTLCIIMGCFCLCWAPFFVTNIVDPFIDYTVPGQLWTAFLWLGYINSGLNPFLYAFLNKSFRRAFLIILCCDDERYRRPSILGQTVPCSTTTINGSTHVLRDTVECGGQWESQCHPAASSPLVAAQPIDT

[3] = target: C-C chemokine receptor type 2 (Homo sapiens, UniProt P41597); assay type: cell membranes, CHO-K1, Membrane; details: cho-k1; also: in other assays of this panel Not Active means under 50% inhibition at 10 µM
Chain of C-C chemokine receptor type 2 (P41597 whole entry): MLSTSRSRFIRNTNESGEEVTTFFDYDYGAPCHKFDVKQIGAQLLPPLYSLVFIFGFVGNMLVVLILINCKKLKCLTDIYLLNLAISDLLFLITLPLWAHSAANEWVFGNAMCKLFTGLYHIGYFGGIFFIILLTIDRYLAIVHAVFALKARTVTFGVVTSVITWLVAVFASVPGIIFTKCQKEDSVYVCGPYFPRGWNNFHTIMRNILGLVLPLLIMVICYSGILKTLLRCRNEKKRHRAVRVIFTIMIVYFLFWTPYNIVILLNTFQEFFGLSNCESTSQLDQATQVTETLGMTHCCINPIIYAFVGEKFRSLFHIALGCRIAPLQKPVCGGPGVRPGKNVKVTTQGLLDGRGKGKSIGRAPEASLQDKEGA

[4] = target: Matrix metalloproteinase-9 (Homo sapiens, UniProt P14780); assay type: cell-based;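 also: inhibition of isolated MMP-9 enzyme activity toward a synthetic peptide substrate, from the DrugMatrix protease screening panel; in other assays of this panel Not Active means under 50% inhibition at 10 µM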
Chain of Matrix metalloproteinase-9 (P14780 whole entry): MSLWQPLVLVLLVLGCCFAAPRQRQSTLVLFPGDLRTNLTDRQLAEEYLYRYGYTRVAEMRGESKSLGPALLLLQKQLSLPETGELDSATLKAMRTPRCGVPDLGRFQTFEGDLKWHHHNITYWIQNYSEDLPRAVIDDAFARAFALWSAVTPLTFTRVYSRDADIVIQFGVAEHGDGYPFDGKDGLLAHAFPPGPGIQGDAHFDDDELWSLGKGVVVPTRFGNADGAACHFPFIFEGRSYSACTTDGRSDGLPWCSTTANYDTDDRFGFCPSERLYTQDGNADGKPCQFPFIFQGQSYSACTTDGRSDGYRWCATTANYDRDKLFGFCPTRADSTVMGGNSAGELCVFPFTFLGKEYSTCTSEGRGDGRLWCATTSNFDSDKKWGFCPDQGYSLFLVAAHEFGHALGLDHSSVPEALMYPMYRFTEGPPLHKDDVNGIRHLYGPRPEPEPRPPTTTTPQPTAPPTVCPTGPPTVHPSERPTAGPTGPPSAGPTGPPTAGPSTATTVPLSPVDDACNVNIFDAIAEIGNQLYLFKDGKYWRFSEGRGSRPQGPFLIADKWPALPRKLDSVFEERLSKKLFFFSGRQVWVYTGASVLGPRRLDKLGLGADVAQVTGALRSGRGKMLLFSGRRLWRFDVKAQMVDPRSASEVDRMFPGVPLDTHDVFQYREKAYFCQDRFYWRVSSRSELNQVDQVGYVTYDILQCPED

[5] = target: T2, Muscarinic acetylcholine receptor M4 (Homo sapiens, UniProt P08173); assay type: cell membranes, CHO-K1, Membrane; details: cho-k1; also: in other assays of this panel Not Active means under 50% inhibition at 10 µM
T2 sequence (P08173 whole entry): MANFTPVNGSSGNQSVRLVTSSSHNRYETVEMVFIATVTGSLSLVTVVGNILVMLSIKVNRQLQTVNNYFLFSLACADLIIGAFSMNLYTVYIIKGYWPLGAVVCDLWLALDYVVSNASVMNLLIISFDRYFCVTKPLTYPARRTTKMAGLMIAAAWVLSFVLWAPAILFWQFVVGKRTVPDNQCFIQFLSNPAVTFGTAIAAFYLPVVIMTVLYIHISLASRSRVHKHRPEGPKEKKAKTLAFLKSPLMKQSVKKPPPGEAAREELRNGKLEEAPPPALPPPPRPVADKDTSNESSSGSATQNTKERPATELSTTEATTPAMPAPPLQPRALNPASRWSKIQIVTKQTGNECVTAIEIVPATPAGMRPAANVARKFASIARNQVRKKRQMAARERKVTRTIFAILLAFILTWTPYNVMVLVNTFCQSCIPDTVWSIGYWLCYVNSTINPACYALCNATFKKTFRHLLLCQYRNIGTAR

Cytochrome P450 2E1 = Cytochrome P450 2E1 (Homo sapiens, UniProt P05181); details: bti-tn-5b1-4; also: in other assays of this panel Not Active means under 50% inhibition at 10 µM
Chain of Cytochrome P450 2E1 (P05181 whole entry): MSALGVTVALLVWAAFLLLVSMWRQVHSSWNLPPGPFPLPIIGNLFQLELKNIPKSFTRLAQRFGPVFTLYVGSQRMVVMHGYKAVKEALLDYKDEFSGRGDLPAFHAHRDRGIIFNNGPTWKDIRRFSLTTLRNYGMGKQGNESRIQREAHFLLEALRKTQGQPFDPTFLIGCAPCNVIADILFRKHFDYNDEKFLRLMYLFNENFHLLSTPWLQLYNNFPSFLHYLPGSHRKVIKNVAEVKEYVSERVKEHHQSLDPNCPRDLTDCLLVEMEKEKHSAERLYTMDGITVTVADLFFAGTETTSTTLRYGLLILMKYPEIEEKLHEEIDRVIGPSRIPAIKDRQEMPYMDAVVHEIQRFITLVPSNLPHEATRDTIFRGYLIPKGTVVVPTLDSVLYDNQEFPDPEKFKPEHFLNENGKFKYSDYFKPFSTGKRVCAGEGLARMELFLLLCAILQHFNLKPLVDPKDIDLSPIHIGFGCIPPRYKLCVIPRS

[6] = target: Sodium-dependent dopamine transporter (Homo sapiens, UniProt Q01959); assay: DRUGMATRIX: Dopamine Transporter radioligand binding (ligand: [125I] RTI-55); assay type: cell membranes, CHO-K1, Membrane; details: cho-k1; Not Active = under 50% inhibition at 10 µM
Chain of Sodium-dependent dopamine transporter (Q01959 whole entry): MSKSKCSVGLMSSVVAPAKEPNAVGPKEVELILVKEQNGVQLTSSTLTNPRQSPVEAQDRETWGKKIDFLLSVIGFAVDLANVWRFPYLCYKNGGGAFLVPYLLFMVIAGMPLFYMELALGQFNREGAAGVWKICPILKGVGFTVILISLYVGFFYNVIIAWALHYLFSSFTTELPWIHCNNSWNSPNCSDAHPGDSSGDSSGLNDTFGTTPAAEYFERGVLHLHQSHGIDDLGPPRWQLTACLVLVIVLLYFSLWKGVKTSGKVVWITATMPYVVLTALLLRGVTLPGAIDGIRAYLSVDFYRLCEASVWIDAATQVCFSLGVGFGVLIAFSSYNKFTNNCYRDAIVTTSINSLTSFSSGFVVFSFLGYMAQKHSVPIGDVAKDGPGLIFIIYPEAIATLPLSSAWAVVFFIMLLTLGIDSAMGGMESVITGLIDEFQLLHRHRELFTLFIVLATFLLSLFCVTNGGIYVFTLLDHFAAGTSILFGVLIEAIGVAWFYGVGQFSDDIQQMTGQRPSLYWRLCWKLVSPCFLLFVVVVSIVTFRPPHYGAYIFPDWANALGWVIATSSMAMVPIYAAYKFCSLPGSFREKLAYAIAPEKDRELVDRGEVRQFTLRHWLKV

Estrogen receptor beta = Estrogen receptor beta (Homo sapiens, UniProt Q92731); details: sf9; also: in other assays of this panel Not Active means under 50% inhibition at 10 µM
Chain of Estrogen receptor beta (Q92731 whole entry): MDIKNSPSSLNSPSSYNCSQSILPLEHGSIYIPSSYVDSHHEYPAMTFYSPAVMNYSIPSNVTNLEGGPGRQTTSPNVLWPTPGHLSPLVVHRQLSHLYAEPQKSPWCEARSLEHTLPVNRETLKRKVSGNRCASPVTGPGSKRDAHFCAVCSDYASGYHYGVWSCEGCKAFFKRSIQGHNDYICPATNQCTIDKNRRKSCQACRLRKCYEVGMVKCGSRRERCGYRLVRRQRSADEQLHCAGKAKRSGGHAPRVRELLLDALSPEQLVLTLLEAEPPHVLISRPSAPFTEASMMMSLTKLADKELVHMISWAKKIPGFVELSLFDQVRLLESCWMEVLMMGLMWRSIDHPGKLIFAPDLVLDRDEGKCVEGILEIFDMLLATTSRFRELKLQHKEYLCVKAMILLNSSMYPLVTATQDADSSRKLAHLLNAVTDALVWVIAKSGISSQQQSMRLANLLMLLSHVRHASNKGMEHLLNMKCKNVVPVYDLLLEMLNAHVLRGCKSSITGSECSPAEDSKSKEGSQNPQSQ

D(1A) dopamine receptor = D(1A) dopamine receptor (Homo sapiens, UniProt P21728); assay: DRUGMATRIX: Dopamine D1 radioligand binding (ligand: [3H] SCH-23390); assay type: cell membranes, CHO, Membrane; details: cho; Not Active = under 50% inhibition at 10 µM
Chain of D(1A) dopamine receptor (P21728 whole entry): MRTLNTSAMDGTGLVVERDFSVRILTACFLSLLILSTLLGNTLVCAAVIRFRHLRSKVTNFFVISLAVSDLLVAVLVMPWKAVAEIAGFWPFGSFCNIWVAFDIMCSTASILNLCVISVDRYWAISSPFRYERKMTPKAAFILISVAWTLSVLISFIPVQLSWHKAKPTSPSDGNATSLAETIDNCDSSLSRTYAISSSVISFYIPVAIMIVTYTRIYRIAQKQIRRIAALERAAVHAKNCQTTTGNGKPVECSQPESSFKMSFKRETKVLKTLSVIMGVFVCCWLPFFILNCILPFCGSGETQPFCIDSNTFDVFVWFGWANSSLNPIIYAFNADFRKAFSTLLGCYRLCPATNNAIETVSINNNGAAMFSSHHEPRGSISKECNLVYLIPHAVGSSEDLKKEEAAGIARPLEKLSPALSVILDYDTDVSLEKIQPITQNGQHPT

[7] = DRUGMATRIX: Glutamate, NMDA, Phencyclidine radioligand binding (ligand: [3H] TCP); assay type: cell membranes, Rattus norvegicus, Wistar, Cerebral cortex, Membrane; details: Not Active = under 50% inhibition at 10 µM
[8] = target: T3, Receptor-type tyrosine-protein phosphatase C (Homo sapiens, UniProt P08575); design: species or system Escherichia coli
T3 sequence (P08575 whole entry): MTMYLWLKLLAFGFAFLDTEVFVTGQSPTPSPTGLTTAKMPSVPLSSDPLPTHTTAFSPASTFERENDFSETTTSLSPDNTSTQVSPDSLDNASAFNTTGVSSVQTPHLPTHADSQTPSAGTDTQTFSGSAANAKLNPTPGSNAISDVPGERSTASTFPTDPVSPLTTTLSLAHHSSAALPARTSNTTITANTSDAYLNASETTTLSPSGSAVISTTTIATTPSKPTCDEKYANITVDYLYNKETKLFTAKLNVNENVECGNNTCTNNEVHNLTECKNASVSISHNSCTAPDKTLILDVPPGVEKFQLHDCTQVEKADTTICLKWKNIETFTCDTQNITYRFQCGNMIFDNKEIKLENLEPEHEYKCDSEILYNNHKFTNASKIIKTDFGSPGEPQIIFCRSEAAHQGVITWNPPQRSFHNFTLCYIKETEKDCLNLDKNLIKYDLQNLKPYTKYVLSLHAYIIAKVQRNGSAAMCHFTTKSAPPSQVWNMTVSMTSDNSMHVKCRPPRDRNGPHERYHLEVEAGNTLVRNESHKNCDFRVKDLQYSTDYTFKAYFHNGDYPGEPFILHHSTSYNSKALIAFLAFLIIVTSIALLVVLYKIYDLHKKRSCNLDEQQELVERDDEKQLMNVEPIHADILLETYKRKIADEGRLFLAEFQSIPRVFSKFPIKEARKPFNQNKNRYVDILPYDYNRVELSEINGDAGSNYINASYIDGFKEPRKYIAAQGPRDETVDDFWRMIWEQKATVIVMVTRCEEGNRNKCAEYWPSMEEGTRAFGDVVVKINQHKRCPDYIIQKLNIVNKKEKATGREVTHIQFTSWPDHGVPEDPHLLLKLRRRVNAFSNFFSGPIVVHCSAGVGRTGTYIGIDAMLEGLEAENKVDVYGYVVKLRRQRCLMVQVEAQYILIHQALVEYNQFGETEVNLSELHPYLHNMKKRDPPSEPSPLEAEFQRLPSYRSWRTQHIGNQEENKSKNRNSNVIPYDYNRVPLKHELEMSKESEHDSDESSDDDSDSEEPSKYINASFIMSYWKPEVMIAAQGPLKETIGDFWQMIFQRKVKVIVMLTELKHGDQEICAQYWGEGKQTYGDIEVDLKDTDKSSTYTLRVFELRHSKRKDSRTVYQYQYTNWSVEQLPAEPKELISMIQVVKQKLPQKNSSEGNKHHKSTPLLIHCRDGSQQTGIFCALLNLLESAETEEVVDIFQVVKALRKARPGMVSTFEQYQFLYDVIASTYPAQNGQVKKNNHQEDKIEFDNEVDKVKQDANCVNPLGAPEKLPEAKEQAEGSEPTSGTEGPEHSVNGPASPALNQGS

[9] = target: C-C chemokine receptor type 5 (Homo sapiens, UniProt P51681); assay type: cell membranes, Membrane; details: hek293; also: in other assays of this panel Not Active means under 50% inhibition at 10 µM
Chain of C-C chemokine receptor type 5 (P51681 whole entry): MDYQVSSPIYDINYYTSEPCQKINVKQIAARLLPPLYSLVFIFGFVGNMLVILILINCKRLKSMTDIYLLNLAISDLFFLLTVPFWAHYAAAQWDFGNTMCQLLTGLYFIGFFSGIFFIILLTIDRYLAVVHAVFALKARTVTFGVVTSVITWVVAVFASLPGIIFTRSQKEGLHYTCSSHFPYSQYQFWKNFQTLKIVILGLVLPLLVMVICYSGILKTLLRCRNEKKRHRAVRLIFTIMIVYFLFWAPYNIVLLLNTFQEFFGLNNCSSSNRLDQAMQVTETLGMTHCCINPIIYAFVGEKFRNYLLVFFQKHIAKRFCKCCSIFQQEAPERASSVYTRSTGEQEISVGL

Nc1nc(=O)[nH]cc1F [FLUCYTOSINE]
Not Active: IC50 [1] | Ki [1] | IC50 (B2 bradykinin receptor) | IC50 [2] | IC50 [3] | IC50 [4] | IC50 [5] | IC50 (Cytochrome P450 2E1) | Ki (Cytochrome P450 2E1) | IC50 [6] | IC50 (Estrogen receptor beta) | IC50 (D(1A) dopamine receptor) | IC50 [7] | Ki [7] | IC50 [8] | IC50 [9]

O=C1OC2(c3ccc(O)cc3Oc3cc(O)ccc32)c2ccccc21 [FLUORESCEIN]
Not Active: IC50 [1] | Ki [1] | IC50 (B2 bradykinin receptor) | IC50 [2] | IC50 [3] | IC50 [4] | IC50 [5] | IC50 (Cytochrome P450 2E1) | Ki (Cytochrome P450 2E1) | IC50 [6] | IC50 (Estrogen receptor beta) | IC50 (D(1A) dopamine receptor) | IC50 [7] | Ki [7] | IC50 [8] | IC50 [9]

CC(=O)[C@@]1(O)CC[C@H]2[C@@H]3C[C@H](C)C4=CC(=O)C=C[C@]4(C)[C@@]3(F)[C@@H](O)C[C@@]21C [FLUOROMETHOLONE]
Not Active: IC50 [1] | Ki [1] | IC50 (B2 bradykinin receptor) | IC50 [2] | IC50 [3] | IC50 [4] | IC50 [5] | IC50 (Cytochrome P450 2E1) | Ki (Cytochrome P450 2E1) | IC50 [6] | IC50 (Estrogen receptor beta) | IC50 (D(1A) dopamine receptor) | IC50 [7] | Ki [7] | IC50 [8] | IC50 [9]

O=c1[nH]cc(F)c(=O)[nH]1 [FLUOROURACIL]
Not Active: IC50 [1] | Ki [1] | IC50 (B2 bradykinin receptor) | IC50 [2] | IC50 [3] | IC50 [4] | IC50 [5] | IC50 (Cytochrome P450 2E1) | Ki (Cytochrome P450 2E1) | IC50 [6] | IC50 (Estrogen receptor beta) | IC50 (D(1A) dopamine receptor) | IC50 [7] | Ki [7] | IC50 [8] | IC50 [9]

CC[N+](CC)(CC)CCOc1cccc(OCC[N+](CC)(CC)CC)c1OCC[N+](CC)(CC)CC.[I-].[I-].[I-] [GALLAMINE TRIETHIODIDE]
Not Active: IC50 [1] | Ki [1] | IC50 (B2 bradykinin receptor) | IC50 [2] | IC50 [3] | IC50 [4] | IC50 [5] | IC50 (Cytochrome P450 2E1) | Ki (Cytochrome P450 2E1) | IC50 [6] | IC50 (Estrogen receptor beta) | IC50 (D(1A) dopamine receptor) | IC50 [7] | Ki [7] | IC50 [8] | IC50 [9]

Nc1nc2c(ncn2COC(CO)CO)c(=O)[nH]1 [GANCICLOVIR]
Not Active: IC50 [1] | Ki [1] | IC50 (B2 bradykinin receptor) | IC50 [2] | IC50 [3] | IC50 [4] | IC50 [5] | IC50 (Cytochrome P450 2E1) | Ki (Cytochrome P450 2E1) | IC50 [6] | IC50 (Estrogen receptor beta) | IC50 (D(1A) dopamine receptor) | IC50 [7] | Ki [7] | IC50 [8] | IC50 [9]
